The values below come from US11739098B2 (BRISTOL-MYERS SQUIBB COMPANY, priority 2017, dated 2023).

What all share (assay type): cell-based
One test has as its target T1, human TLR7 (Homo sapiens, UniProt Q9NYK1).
T1 construct: host or cells: HEK-Blue cells (HEK293-derived reporter line)
T1 sequence (Q9NYK1 27-1049): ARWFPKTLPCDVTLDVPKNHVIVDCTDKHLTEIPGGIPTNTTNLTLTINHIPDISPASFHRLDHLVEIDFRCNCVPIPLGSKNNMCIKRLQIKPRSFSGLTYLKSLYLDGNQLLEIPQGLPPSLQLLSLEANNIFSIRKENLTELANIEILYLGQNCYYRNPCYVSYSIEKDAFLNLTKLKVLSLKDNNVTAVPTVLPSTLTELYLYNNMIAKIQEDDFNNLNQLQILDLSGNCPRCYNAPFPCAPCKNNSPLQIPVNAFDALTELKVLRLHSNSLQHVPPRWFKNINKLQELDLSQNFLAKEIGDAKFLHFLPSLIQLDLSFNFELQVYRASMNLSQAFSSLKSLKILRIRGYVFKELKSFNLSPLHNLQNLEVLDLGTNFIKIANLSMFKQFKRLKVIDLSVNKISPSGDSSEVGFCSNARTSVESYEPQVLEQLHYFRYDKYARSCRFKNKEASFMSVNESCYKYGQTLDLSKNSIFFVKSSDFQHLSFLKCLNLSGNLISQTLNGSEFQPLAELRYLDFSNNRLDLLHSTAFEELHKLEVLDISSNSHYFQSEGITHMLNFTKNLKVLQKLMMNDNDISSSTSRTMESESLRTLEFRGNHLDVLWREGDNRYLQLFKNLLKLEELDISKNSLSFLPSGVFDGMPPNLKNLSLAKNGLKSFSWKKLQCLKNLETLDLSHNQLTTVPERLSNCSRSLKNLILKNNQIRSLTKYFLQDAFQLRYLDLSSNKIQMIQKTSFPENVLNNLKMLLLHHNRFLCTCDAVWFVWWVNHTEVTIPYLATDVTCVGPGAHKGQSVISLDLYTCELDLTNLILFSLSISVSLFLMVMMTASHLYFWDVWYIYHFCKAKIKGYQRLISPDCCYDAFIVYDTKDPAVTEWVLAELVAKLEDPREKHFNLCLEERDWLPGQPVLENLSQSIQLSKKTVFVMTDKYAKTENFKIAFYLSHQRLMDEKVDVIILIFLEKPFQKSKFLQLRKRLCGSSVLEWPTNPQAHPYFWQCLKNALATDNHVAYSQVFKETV
In words: TLR7 inhibition reporter assay (HEK-Blue cells, SEAP reporter, gardiquimod stimulation). The following applies: HEK-Blue cells overexpressing human TLR7, SEAP reporter, gardiquimod 7.5 μM. In a few lines: (§1)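 HEK-Blue cells overexpressing human TLR7, TLR8 or TLR9 (NF-κB/AP-1-driven SEAP) pre-treated 30 min at room temperature with compound (0.05 nM–50 μM), then stimulated with gardiquimod 7.5 μM (TLR7), R848 15.9 μM (TLR8) or ODN2006 5 nM (TLR9). SEAP read colorimetrically after 22 h at 37 °C; % inhibition calculated.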
For orientation: In a reporter assay the amount or activity of a reporter protein is the signal.

A further test has as its target T2, human TLR9 (Homo sapiens, UniProt Q9NR96).
T2 construct: host or cells: HEK-Blue cells (HEK293-derived reporter line)
T2 sequence (Q9NR96 26-1032): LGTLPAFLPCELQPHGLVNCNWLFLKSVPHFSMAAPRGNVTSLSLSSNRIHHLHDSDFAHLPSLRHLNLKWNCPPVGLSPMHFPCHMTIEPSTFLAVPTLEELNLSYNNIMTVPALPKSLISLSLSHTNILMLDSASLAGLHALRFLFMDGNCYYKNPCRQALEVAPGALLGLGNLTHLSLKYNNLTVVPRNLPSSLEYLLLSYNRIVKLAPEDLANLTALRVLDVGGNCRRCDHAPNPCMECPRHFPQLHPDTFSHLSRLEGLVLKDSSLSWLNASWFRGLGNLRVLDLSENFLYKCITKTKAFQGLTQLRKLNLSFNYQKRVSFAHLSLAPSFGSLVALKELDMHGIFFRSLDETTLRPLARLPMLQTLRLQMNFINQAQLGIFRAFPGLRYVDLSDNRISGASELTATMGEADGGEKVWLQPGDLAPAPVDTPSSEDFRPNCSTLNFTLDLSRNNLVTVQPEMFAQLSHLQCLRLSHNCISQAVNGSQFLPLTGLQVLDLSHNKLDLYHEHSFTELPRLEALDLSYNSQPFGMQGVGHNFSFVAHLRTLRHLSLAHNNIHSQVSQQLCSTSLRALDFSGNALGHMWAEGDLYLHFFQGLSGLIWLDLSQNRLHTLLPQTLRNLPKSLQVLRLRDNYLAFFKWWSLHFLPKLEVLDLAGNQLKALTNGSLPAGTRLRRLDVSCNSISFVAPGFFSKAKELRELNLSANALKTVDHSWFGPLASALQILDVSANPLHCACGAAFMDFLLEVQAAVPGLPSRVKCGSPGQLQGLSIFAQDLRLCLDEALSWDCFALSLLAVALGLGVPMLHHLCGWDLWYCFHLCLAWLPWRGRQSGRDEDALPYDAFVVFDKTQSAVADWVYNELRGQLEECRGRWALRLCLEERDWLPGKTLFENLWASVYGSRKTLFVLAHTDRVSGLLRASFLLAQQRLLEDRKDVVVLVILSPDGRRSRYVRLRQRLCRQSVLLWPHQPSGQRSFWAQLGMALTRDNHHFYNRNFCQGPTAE
In words: TLR9 inhibition reporter assay (HEK-Blue cells, SEAP reporter, ODN2006 stimulation). To be noted: HEK-Blue cells overexpressing human TLR9, SEAP reporter, ODN2006 5 nM. Put shortly: as §1

Another test deals with T3, human TLR8 (Homo sapiens, UniProt Q9NR97).
T3 construct: host or cells: HEK-Blue cells (HEK293-derived reporter line)
T3 sequence (Q9NR97 27-1041): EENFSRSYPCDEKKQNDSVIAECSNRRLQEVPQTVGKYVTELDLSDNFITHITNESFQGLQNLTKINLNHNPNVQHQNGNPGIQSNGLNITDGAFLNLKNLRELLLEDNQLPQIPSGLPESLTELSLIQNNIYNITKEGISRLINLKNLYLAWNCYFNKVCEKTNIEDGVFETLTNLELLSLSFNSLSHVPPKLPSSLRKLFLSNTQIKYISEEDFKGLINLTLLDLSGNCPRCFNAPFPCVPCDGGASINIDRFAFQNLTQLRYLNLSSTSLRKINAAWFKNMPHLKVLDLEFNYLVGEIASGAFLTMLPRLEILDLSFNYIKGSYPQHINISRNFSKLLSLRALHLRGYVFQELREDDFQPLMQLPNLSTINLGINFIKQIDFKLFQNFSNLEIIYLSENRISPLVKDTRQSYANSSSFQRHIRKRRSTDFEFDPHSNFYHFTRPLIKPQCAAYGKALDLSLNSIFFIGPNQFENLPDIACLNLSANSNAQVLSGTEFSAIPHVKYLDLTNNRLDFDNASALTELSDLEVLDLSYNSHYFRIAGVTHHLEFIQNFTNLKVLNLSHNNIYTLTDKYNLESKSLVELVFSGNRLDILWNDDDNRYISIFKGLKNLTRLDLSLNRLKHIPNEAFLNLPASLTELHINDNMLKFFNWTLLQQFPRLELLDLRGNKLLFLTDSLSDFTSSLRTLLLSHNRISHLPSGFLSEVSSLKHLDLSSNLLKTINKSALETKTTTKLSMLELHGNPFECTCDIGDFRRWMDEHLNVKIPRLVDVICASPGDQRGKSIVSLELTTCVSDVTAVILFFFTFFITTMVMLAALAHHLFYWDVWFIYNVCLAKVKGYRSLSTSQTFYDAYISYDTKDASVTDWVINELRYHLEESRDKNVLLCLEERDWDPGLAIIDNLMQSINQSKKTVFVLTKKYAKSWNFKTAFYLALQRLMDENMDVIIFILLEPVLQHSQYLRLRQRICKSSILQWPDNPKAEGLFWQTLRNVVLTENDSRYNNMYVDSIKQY
In words: TLR8 inhibition reporter assay (HEK-Blue cells, SEAP reporter, R848 stimulation). The following applies: HEK-Blue cells overexpressing human TLR8, SEAP reporter, R848 15.9 μM. Put shortly:
as §1

Structures are written as SMILES.

Consider `CC(C)c1c(-c2ccc3nccn3c2)[nH]c2ccc(C3CCN(CC(=O)NCC(F)(F)F)CC3)cc12` [Example 401, 2-(4-(2-(imidazo[1,2-a]pyridin-6-yl)-3-isopropyl-1H-indol-5-yl)piperidin-1-yl)-N-(2,2,2-trifluoroethyl)acetamide], for which the IC50 (commonly the midpoint of a concentration-inhibition curve) at human TLR7 is 100 to 1000 nM; against human TLR9 it was 1000 to 50000 nM; on human TLR8, 100 to 1000 nM.

In the case of `CCc1c(-c2cccc3c2cnn3C)[nH]c2ccc(C3CCN(C(=O)CN(C)C)CC3)cc12` [Example 520, 2-(dimethylamino)-1-(4-(3-ethyl-2-(1-methyl-1H-indazol-4-yl)-1H-indol-5-yl)piperidin-1-yl)ethan-1-one], the IC50 against human TLR7 is above 50000 nM; on human TLR9, 1000 to 50000 nM; on human TLR8, above 50000 nM.

Regarding `CC(C)c1c(-c2ccnc3[nH]ncc23)[nH]c2ccc(C3CCN(CCCN4CCCCC4)CC3)cc12` [Example 848, 4-(3-isopropyl-5-(1-(3-(piperidin-1-yl)propyl)piperidin-4-yl)-1H-indol-2-yl)-1H-pyrazolo[3,4-b]pyridine], the IC50 on human TLR7, against human TLR9 and at human TLR8 was 100 to 1000 nM throughout.

Take `Cc1cc(-c2[nH]c3ccc(C4CCN(C(=O)CCN5C[C@H]6CC[C@@H](C5)O6)CC4)cc3c2C(C)C)cn2nnnc12` [Example 622, 3-((1R,5S)-8-oxa-3-azabicyclo[3.2.1]octan-3-yl)-1-(4-(3-isopropyl-2-(8-methyltetrazolo[1,5-a]pyridin-6-yl)-1H-indol-5-yl)piperidin-1-yl)propan-1-one]: the IC50 is below 100 nM against human TLR7, 1000 to 50000 nM at human TLR9 and below 100 nM against human TLR8.

Consider `Cc1cc(-c2[nH]c3ccc(C4CCNCC4)cc3c2C(C)C)cc2c(O)c(C#N)cnc12` [Example 107, 4-hydroxy-6-(3-isopropyl-5-(piperidin-4-yl)-1H-indol-2-yl)-8-methylquinoline-3-carbonitrile], for which the results for the IC50 at human TLR7, against human TLR9 and against human TLR8 were 1000 to 50000 nM, 1000 to 50000 nM and above 3130 nM, respectively.

For the molecule `COc1c[nH]c2nccc(-c3[nH]c4ccc(C5CCNCC5)cc4c3C)c12` [Example 213, 3-methoxy-4-(3-methyl-5-(piperidin-4-yl)-1H-indol-2-yl)-1H-pyrrolo[2,3-b]pyridine], the IC50 against human TLR7 was in the range of 1000 to 50000 nM; at human TLR9 it was 1000 to 50000 nM; against human TLR8, 100 to 1000 nM.

As for `Cc1cc2nccn2cc1-c1[nH]c2ccc(C3CCN(C4CCN(C(C)C)CC4)CC3)cc2c1C(C)C` [Example 841, 6-(3-isopropyl-5-(1′-isopropyl-[1,4′-bipiperidin]-4-yl)-1H-indol-2-yl)-7-methylimidazo[1,2-a]pyridine], the concentration for half-maximal inhibition (IC50) at human TLR7, on human TLR9 and against human TLR8 was below 100 nM each time.

With `Cc1cn2cc(-c3[nH]c4ccc(C5CCN(Cc6c[nH]c(C)n6)CC5)cc4c3C(C)C)ccc2n1` [Example 937, 6-(3-isopropyl-5-(1-((2-methyl-1H-imidazol-4-yl)methyl)piperidin-4-yl)-1H-indol-2-yl)-2-methylimidazo[1,2-a]pyridine], the IC50 against human TLR7 was below 100 nM; on human TLR9, below 100 nM; at human TLR8, 100 to 1000 nM.

Turning to `CC(C)c1c(-c2cc(C(F)(F)F)c3nccn3c2)[nH]c2ccc(C3CCN(C(C)C)CC3)cc12` [Example 942, 6-(3-isopropyl-5-(1-isopropylpiperidin-4-yl)-1H-indol-2-yl)-8-(trifluoromethyl)imidazo[1,2-a]pyridine], the results for the IC50 against human TLR7, against human TLR9 and at human TLR8 were below 100 nM, 1000 to 50000 nM and below 100 nM, respectively.

Regarding `CCc1c(-c2ccnc3[nH]ncc23)[nH]c2ccc(C3CCN(CCNC)CC3)cc12` [Example 654, 2-(4-(3-ethyl-2-(1H-pyrazolo[3,4-b]pyridin-4-yl)-1H-indol-5-yl)piperidin-1-yl)-N-methylethan-1-amine], the values for the IC50 on human TLR7, at human TLR9 and at human TLR8 were below 100 nM, 100 to 1000 nM and below 100 nM, respectively.

As to `CCCN1CCC(c2ccc3[nH]c(-c4cc(C)c5c(c4)ncn5C)c(C(C)C)c3c2)CC1` [Example 956, 5-(3-isopropyl-5-(1-propylpiperidin-4-yl)-1H-indol-2-yl)-1,7-dimethyl-1H-benzo[d]imidazole], the figures for the IC50 at human TLR7, on human TLR9 and against human TLR8 were below 100 nM, 100 to 1000 nM and 100 to 1000 nM, respectively.

Turning to `CCc1c(-c2ccc3ncc(C)n3n2)[nH]c2ccc(C3CCNCC3)cc12` [Example 103, 6-(3-ethyl-5-(piperidin-4-yl)-1H-indol-2-yl)-3-methylimidazo[1,2-b]pyridazine], the IC50 on human TLR7 was 1000 to 50000 nM; on human TLR9, 1000 to 50000 nM; on human TLR8 it was 100 to 1000 nM.

For the molecule `Cc1c(-c2[nH]c3ccc(C4CCN(CC(C)(C)O)CC4)cc3c2C(C)C)cn2ccnc2c1Cl` [Example 772, 1-(4-(2-(8-chloro-7-methylimidazo[1,2-a]pyridin-6-yl)-3-isopropyl-1H-indol-5-yl)piperidin-1-yl)-2-methylpropan-2-ol], the concentration for half-maximal inhibition (IC50) against human TLR7 is below 100 nM; at human TLR9 it was 1000 to 50000 nM; against human TLR8, below 100 nM.
